Earlier results in US20220112625A1, “Diagnosing and Treating Neurological and Autoimmune Diseases by Optimizing Metabolic Responses” (priority 2017, published 2022).
Values belong to the molecule of their own block, whether it stands above or below them.

Assays:
PI3Kα = PI3Kα (Homo sapiens, UniProt P42336); conditions: PI3Kγ versus PI3Kα
PI3Kβ = PI3Kβ (Homo sapiens, UniProt P42338); conditions: PI3Kγ versus PI3Kβ
PI3Kδ = PI3Kδ (Homo sapiens, UniProt O00329); conditions: PI3Kγ versus PI3Kδ
[1] = test system: class I and class II PI3Ks
mTOR = mTOR (Homo sapiens, UniProt P42345); conditions: up to at least about 10 μM

PI3Kα, sequence (P42336 whole entry, species assumed): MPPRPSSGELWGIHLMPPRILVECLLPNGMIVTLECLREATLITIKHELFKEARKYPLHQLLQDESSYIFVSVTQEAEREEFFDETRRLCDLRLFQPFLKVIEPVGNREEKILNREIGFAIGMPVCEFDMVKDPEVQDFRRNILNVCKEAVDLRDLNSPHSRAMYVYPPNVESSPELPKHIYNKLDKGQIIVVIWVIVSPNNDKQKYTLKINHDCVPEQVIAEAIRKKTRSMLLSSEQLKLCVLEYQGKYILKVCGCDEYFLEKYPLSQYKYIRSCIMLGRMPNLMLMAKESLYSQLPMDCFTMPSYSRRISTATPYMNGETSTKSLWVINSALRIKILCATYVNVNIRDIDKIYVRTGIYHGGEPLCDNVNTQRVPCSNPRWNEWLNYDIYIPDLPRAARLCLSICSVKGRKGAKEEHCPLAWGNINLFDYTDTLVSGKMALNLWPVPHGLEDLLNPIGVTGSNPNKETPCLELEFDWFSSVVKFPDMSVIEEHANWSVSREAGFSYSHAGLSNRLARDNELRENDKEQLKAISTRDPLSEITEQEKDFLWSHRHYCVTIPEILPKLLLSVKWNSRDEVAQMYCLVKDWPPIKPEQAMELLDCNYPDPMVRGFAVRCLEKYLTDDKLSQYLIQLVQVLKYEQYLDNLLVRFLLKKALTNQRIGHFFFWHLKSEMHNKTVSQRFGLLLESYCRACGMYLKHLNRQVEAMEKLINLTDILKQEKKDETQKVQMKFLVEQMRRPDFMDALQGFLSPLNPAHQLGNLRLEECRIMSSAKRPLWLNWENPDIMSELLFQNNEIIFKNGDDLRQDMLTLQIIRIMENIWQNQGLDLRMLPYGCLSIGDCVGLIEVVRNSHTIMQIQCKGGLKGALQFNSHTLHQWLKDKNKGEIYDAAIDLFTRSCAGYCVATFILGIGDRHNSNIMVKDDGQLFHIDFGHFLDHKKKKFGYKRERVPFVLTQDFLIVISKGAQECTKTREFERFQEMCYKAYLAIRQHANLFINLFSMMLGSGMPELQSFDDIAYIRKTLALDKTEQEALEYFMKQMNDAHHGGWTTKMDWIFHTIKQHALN
PI3Kα, sequence (P27986 whole entry partner, species assumed): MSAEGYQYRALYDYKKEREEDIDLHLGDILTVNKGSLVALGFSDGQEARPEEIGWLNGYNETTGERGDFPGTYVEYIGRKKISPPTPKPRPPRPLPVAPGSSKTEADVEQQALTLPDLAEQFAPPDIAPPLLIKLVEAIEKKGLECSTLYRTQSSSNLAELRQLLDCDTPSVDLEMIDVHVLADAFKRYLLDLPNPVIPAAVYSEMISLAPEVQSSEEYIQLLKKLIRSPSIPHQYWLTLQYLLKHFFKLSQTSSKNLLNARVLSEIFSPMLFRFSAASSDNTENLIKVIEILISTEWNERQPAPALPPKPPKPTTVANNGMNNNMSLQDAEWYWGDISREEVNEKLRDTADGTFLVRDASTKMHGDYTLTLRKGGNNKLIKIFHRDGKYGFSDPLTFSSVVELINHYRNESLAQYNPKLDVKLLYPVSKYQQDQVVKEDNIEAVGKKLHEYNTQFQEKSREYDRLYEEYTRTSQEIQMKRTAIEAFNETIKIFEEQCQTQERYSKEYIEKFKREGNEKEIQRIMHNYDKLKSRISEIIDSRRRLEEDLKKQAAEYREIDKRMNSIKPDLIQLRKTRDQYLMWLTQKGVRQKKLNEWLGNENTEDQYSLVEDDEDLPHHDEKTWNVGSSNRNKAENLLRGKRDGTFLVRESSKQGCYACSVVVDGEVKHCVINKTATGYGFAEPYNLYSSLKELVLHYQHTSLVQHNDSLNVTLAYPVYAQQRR
PI3Kδ, sequence (O00329 whole entry, species assumed): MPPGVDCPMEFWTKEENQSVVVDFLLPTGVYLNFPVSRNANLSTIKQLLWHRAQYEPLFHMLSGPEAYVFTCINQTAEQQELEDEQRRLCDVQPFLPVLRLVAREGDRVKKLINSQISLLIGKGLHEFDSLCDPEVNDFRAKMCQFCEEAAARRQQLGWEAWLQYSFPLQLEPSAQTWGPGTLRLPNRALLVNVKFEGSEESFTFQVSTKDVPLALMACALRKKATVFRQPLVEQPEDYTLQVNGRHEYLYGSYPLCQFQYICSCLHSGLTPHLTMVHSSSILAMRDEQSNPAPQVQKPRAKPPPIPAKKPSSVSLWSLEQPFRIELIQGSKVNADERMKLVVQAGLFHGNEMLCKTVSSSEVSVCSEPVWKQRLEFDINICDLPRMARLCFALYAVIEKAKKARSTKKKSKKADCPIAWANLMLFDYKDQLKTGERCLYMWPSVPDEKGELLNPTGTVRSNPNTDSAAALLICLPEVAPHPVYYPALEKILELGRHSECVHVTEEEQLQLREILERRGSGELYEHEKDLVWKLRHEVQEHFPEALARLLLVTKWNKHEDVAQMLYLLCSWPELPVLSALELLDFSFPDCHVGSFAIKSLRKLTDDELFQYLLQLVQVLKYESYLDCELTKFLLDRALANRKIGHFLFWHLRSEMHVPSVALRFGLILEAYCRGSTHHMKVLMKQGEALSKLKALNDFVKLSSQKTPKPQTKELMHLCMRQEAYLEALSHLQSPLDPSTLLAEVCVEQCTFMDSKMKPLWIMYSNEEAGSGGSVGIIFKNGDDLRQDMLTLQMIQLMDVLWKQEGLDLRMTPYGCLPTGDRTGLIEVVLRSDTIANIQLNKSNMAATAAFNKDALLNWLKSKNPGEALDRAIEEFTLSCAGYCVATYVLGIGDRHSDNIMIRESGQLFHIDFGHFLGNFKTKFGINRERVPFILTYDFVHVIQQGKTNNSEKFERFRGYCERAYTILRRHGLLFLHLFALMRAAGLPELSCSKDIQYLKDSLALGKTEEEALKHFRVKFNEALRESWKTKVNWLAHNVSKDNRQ
PI3Kδ, sequence (P27986 whole entry partner, species assumed): as the sequence (P27986 whole entry partner, species assumed) above
PI3Kβ, sequence (P42338 whole entry, species assumed): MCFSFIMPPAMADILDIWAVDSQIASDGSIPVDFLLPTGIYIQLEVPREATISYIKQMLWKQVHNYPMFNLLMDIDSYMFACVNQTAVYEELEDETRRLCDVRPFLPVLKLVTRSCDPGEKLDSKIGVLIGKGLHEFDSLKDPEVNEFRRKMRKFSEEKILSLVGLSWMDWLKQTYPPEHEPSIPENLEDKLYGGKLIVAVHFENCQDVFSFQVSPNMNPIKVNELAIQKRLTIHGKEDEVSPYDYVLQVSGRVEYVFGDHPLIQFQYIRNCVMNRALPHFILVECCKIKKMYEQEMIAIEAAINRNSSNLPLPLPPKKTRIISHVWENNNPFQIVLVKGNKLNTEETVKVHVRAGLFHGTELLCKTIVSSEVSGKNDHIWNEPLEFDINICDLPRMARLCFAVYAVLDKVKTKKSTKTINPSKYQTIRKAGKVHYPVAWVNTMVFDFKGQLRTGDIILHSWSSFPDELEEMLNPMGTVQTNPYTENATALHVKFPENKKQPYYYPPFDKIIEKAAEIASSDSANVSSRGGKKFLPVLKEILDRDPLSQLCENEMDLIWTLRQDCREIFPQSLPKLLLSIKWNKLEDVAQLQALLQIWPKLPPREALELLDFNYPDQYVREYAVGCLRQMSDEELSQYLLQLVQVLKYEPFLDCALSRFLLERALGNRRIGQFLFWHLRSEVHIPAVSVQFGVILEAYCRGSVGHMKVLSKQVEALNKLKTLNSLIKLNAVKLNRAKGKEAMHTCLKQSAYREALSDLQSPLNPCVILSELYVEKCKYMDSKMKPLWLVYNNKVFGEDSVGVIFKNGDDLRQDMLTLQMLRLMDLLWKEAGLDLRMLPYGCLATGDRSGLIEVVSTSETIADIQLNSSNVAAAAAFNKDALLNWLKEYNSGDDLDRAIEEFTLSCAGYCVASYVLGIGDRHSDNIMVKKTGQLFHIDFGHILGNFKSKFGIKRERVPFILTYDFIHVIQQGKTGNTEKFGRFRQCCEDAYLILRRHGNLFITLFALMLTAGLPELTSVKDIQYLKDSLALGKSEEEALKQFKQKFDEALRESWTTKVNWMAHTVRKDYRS
PI3Kβ, sequence (P27986 whole entry partner, species assumed): as the sequence (P27986 whole entry partner, species assumed) above

selectivity over PI3Kα (PI3Kα): > 100 fold | selectivity over PI3Kβ (PI3Kβ): 10 fold | selectivity over PI3Kδ (PI3Kδ): > 100 fold
Compound: CC(C)(C)NS(=O)(=O)c1cncc(-c2cc(F)c3nc(N)nn3c2)c1 [CZC24832, 5-(2-amino-8-fluoro [1,2,4]triazolo[1,5-a]pyridin-6-yl)-N-(1,1-dimethylethyl)-3-pyridinesulfonamide]

effect on mTOR (mTOR): no effect
Compound: C[C@@H]1COCCN1c1cc(=O)n2c(n1)N(Cc1cncc(Cl)c1)[C@H](C(F)(F)F)CC2 [SAR405, (8S)-9-[(5-chloro-3-pyridinyl)methyl]-6,7,8,9-tetrahydro-2-[(3R)-3-methyl-4-morpholinyl]-8-(trifluoromethyl)-4H-pyrimido[1,2-a]pyrimidin-4-one]
effect on class I and class II PI3Ks ([1]; up to at least about 10 μM): no effect

Compound: CC(C)(O)CNc1ncc(-c2ccnc(Nc3ccnc(Cl)c3)n2)c(CC2CC2)n1 [VPS34-IN1, 1-[[2-[(2-chloro-4-pyridinyl)amino]-4′-(cyclopropylmethyl)[4,5′-bipyrimidin]-2′-yl]amino]-2-methyl-2-Propanol]
inhibition of the isoforms of class I as well as class II PI3Ks [1]: does not significantly inhibit
